From PubChem BioAssay AID1918954 (Molecular Pharmacology Branch, DTP, NCI, 2023)
pIC50: −log10 of the molar value. Values joined by “and” are separate entries in the source; they are usually repeats but may differ in a detail not shown here. Equal entries are not always repeated.

System: MDA-MB-468 complex spheroids with HUVEC/MSC, viability
Assay: Anticancer human tumor MDA-MB-468 cell line growth inhibition;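 also: spheroids exposed to agents for seven days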;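 as to viability, T/C: 100% = DMSO vehicle control viability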
Conditions: for viability, T/C: stronger effect = lower value
Source text: Multicellular complex tumor spheroid response to LSD1 Inhibitor Iadademstat in combination with a variety of drugs and investigational agents in selected tumor cell lines
The current study was undertaken to assess response to LSD1 inhibitors in combination with standard-of-care drugs and investigational agents in solid tumor complex spheroid models as well as in the K-562 leukemia. Complex spheroids include a stromal component modeled by human endothelial cells (HUVEC) and fibroblasts modeled by human mesenchymal stem cells (MSCs). The concentration ranges selected for each drug and investigational agent were based upon clinically achievable concentrations if the clinical Cmax of the agent was known.
Compounds. The drugs and investigational agents used in this study are listed on Table 1. All of the agents used, including staurosporine (NSC755774) and gemcitabine (NSC613327), were obtained from the Developmental Therapeutics Program, NCI. FDA-approved anticancer drugs are available from the NCI at http://dtp.nci.nih.gov/branches/dscb/oncology_drugset_explanation.html. Drugs and investigational agents were >95% pure by proton nuclear magnetic resonance (NMR) and liquid chromatography/mass spectrometry (LC/MS). Stock solutions were prepared at 400x in DMSO, stored at -70 degrees C, and diluted in fresh medium prior to their use. The final concentration of DMSO in cell culture wells never exceeded 0.25% (v/v). The FDA-approved anticancer drug set is available from the Developmental Therapeutics Program at https://dtp.cancer.gov/organization/dscb/obtaining/available_plates.htm. All drugs and investigational agents were tested over a range starting from a high concentration at or near the clinical Cmax and decreasing in half-log increments. If the clinical Cmax for an agent had not been determined, the highest concentration tested was 10 microM.
Cell Lines. The patient-derived cancer cell (PDC) lines: 292921-168-R-J2-PDC, K24384-001-R-PDC, and 521955-158-R2-J5-PDC pancreatic carcinomas, 556581-035-R-J1 ovarian carcinoma, 324938-238-R-J1-PDC, 855422-203-R-J1-PDC and 883617-216-R-J1-PDC urothelial bladder carcinomas, 743489-274-T-PDC renal cell carcinoma, 138582-R-J1 Merkel cell tumor, K60290-347-R-J1 and K57222-313-R-J1-PDC glioblastomas, 653999-131-R-J2-PDC, LG0703-F948-PDC, and 349418-098-R-PDC non-small cell lung carcinomas, 885512-296-R-J2-PDC, 171881-019-R-J1-PDC breast carcinomas and 186277-243-T-J2-PDC and 233499-124-R-J2-PDC colon carcinomas were obtained from the NCI Patient-Derived Models Repository (PDMR, https://pdmr.cancer.gov). The established cell lines NCI/ADR-RES (RRID:CVCL_14520 and OVCAR-5 (RRID:CVCL_1628) ovarian carcinomas, 786-O (RRID:CVCL_1051) and A498 (RRID:CVCL_A498) renal cell carcinoma, NCI-H211 (ATCC, cat. CRL-5824; RRID:CVCL_1529), NCI-H196 (ATCC, cat. CRL-5823, RRID:CVCL_1509), SW 1271 (ATCC, cat. CRL-2177, RRID:CVCL_1716) and NCI-H1876 (ATCC, cat. CRL-5902, RRID:CVCL_1503) small cell lung carcinomas, MDA-MB-231 (RRID:CVCL_0062) and MDA-MB-468 (RRID:CVCL_0419)breast carcinomas (10-12). Pooled donor human umbilical vein endothelial cells (HUVEC, Lonza, cat. CC-2519) and human mesenchymal stem cells (hMSC, Lonza, cat. PT-2501) were purchased from Lonza (Walkersville, MD).
Cell Culture. All cells were maintained in an incubator at 37 degrees C and 5% CO2 with 95% humidity. The PDC lines were cultured according to standard operating procedures established by the NCI PDMR (https://pdmr.cancer.gov). Briefly all PDCs were thawed and cultured in Matrigel-coated flasks prepared with a working solution of 1X Ham's F-12 nutrient mix, without supplementation (Invitrogen, Waltham, MA, cat. 11765054), 100 U/mL penicillin-streptomycin (Invitrogen, cat. 15140122), and 2.5% Matrigel (Corning Inc., Corning, NY, cat. 354248) for the first three passages. […]

[1] = curve of first compound, second compound 0.1 µM
[2] = curve of first compound, second compound 0.316 µM
[3] = curve of first compound, second compound 1 µM
[4] = curve of first compound, second compound 3.16 µM
[5] = curve of first compound, second compound 10 µM
[6] = second compound 0.1 µM, first compound 0.0316 µM
[7] = second compound 0.1 µM, first compound 0.1 µM
[8] = second compound 0.1 µM, first compound 0.316 µM
[9] = second compound 0.1 µM, first compound 1 µM
[10] = second compound 0.316 µM, first compound 0.0316 µM
[11] = second compound 0.316 µM, first compound 0.1 µM
[12] = second compound 0.316 µM, first compound 0.316 µM
[13] = second compound 0.316 µM, first compound 1 µM
[14] = second compound 1 µM, first compound 0.0316 µM
[15] = second compound 1 µM, first compound 0.1 µM
[16] = second compound 1 µM, first compound 0.316 µM
[17] = second compound 1 µM, first compound 1 µM
[18] = second compound 3.16 µM, first compound 0.0316 µM
[19] = second compound 3.16 µM, first compound 0.1 µM
[20] = second compound 3.16 µM, first compound 0.316 µM
[21] = second compound 3.16 µM, first compound 1 µM
[22] = second compound 10 µM, first compound 0.0316 µM
[23] = second compound 10 µM, first compound 0.1 µM
[24] = second compound 10 µM, first compound 0.316 µM
[25] = second compound 10 µM, first compound 1 µM
[26] = second compound 0.1 µM, first compound 3.16 µM
[27] = second compound 0.1 µM, first compound 10 µM
[28] = second compound 0.316 µM, first compound 3.16 µM
[29] = second compound 0.316 µM, first compound 10 µM
[30] = second compound 1 µM, first compound 3.16 µM
[31] = second compound 1 µM, first compound 10 µM
[32] = second compound 3.16 µM, first compound 3.16 µM
[33] = second compound 3.16 µM, first compound 10 µM
[34] = second compound 10 µM, first compound 3.16 µM
[35] = second compound 10 µM, first compound 10 µM

Row | Structure (SMILES) | pIC50 [1] | pIC50 [2] | pIC50 [3] | pIC50 [4] | pIC50 [5] | viability, T/C [6] | viability, T/C [7] | viability, T/C [8] | viability, T/C [9] | viability, T/C [10] | viability, T/C [11] | viability, T/C [12] | viability, T/C [13] | viability, T/C [14] | viability, T/C [15] | viability, T/C [16] | viability, T/C [17] | viability, T/C [18] | viability, T/C [19] | viability, T/C [20] | further results
1 | CC1COCCN1c1cc(-c2ccnn2C)c2ccnc(-c3ccn[nH]3)c2n1 (configuration not stated) + NC1CC1c1ccc(-c2cccc(O)c2)cc1 | > 8.50 | > 8.50 | > 8.50 | > 8.50 | > 8.50 | 16.7% | 7.91% | 5.23% | 2.24% | 17% | 7.28% | 4.97% | 2.27% | 15.5% | 7.91% | 5.09% | 2.01% | 12.3% | 7.5% | 5.19% | viability, T/C (second compound 0.1 µM, first compound 0.00316 µM): 40%; viability, T/C (second compound 0.1 µM, first compound 0.01 µM): 30.1%; viability, T/C (second compound 0.316 µM, first compound 0.00316 µM): 37.9%; viability, T/C (second compound 0.316 µM, first compound 0.01 µM): 27.4%; viability, T/C (second compound 1 µM, first compound 0.00316 µM): 29.2%; viability, T/C (second compound 1 µM, first compound 0.01 µM): 28%; viability, T/C (second compound 3.16 µM, first compound 0.00316 µM): 27.4%; viability, T/C (second compound 3.16 µM, first compound 0.01 µM): 22.4%; viability, T/C [21]: 2.2%; viability, T/C (second compound 10 µM, first compound 0.00316 µM): 20.3%; viability, T/C (second compound 10 µM, first compound 0.01 µM): 17.1%; viability, T/C [22]: 10.4%; viability, T/C [23]: 6.9%; viability, T/C [24]: 5.95%; viability, T/C [25]: 2.01%
2 | COc1ccc([C@@H](O)c2cc(-c3ncnc4cc(N5CCOCC5)ccc34)c(F)cc2Cl)nn1 + NC1CCC(NC2CC2c2ccccc2)CC1 | 5.97 | 5.94 | 6.09 | 6.08 | 5.87 | 97.8% | 83.5% | 68% | 50% | 101% | 83.7% | 71.7% | 52.3% | 90.5% | 86.9% | 58.3% | 45.9% | 100% | 64.9% | 61.7% | viability, T/C [26]: 35%; viability, T/C [27]: 12.8%; viability, T/C [28]: 33.6%; viability, T/C [29]: 13.1%; viability, T/C [30]: 33.9%; viability, T/C [31]: 12.5%; viability, T/C [21]: 55.4%; viability, T/C [32]: 33.2%; viability, T/C [33]: 15.6%; viability, T/C [22]: 51.3%; viability, T/C [23]: 58.3%; viability, T/C [24]: 57.5%; viability, T/C [25]: 55%; viability, T/C [34]: 35.2%; viability, T/C [35]: 12.7%
3 | O=C(c1cc(Cc2n[nH]c(=O)c3ccccc23)ccc1F)N1CCN(C(=O)C2CC2)CC1 + NC1CCC(NC2CC2c2ccccc2)CC1 | 6.11 | 6.09 | 6.10 | 6.04 | 6.39 | 89.5% | 103% | 76.2% | 42.6% | 93.8% | 87.8% | 71.4% | 47.7% | 90.2% | 80.8% | 71.7% | 45.2% | 68.4% | 75.3% | 77% | viability, T/C [26]: 19.3%; viability, T/C [27]: 13.6%; viability, T/C [28]: 18.2%; viability, T/C [29]: 13.8%; viability, T/C [30]: 21%; viability, T/C [31]: 15.1%; viability, T/C [21]: 47.9%; viability, T/C [32]: 20.8%; viability, T/C [33]: 17%; viability, T/C [22]: 73.9%; viability, T/C [23]: 65.8%; viability, T/C [24]: 53.4%; viability, T/C [25]: 38.9%; viability, T/C [34]: 23.6%; viability, T/C [35]: 18.6%
4 | CC[C@@]1(O)C(=O)OCc2c1cc1n(c2=O)Cc2cc3c(CN(C)C)c(O)ccc3nc2-1 |  |  |  |  |  |  |  |  |  |  |  |  |  |  |  |  |  |  |  |  | viability, T/C (compound 0.000316 µM): 69% and 95.9%; viability, T/C (compound 0.001 µM): 39.5% and 54.5%; viability, T/C (compound 0.00316 µM): 16.9% and 14%; viability, T/C (compound 0.01 µM): 10.4% and 12.7%; viability, T/C (compound 0.0316 µM): 7.18% and 6.23%; viability, T/C (compound 0.1 µM): 7.59% and 4.68%; pIC50 (curve of compound): 9.18 and 8.94
